In PubChem BioAssay (NCI):
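Interpolation was linear, between the two tested concentrations surrounding the appropriate level; five concentrations were tested over 48 hours in 96-well plates. GI50 is the concentration that inhibits growth by half. TGI denotes the concentration required for complete inhibition of growth.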

How the values were obtained:
Assay in all cases: growth of human tumour cells (NCI), 48 h
786-0 renal = test system: 786-0 renal
A498 renal = test system: A498 renal
A549 NSCLC = test system: A549 NSCLC
ACHN renal = test system: ACHN renal
BT-549 breast = test system: BT-549 breast
CAKI-1 renal = test system: CAKI-1 renal
CCRF-CEM leukemia = test system: CCRF-CEM leukemia
COLO 205 colon = test system: COLO 205 colon
DU-145 prostate = test system: DU-145 prostate
EKVX NSCLC = test system: EKVX NSCLC
HCT-15 colon = test system: HCT-15 colon
HOP-62 NSCLC = test system: HOP-62 NSCLC
HOP-92 NSCLC = test system: HOP-92 NSCLC
HS 578T breast = test system: HS 578T breast
HT29 colon = test system: HT29 colon
IGROV1 ovarian = test system: IGROV1 ovarian
K-562 leukemia = test system: K-562 leukemia
KM12 colon = test system: KM12 colon
MALME-3M melanoma = test system: MALME-3M melanoma
MDA-MB-231 breast = test system: MDA-MB-231 breast
MDA-MB-435 = test system: MDA-MB-435
MOLT-4 leukemia = test system: MOLT-4 leukemia
NCI-H226 lung = test system: NCI-H226 lung
NCI-H522 lung = test system: NCI-H522 lung
OVCAR-3 ovarian = test system: OVCAR-3 ovarian
OVCAR-4 ovarian = test system: OVCAR-4 ovarian
OVCAR-5 ovarian = test system: OVCAR-5 ovarian
PC-3 prostate = test system: PC-3 prostate
RPMI-8226 leukemia = test system: RPMI-8226 leukemia
RXF 393 renal = test system: RXF 393 renal
SF-268 CNS = test system: SF-268 CNS
SF-295 CNS = test system: SF-295 CNS
SF-539 CNS = test system: SF-539 CNS
SK-MEL-2 melanoma = test system: SK-MEL-2 melanoma
SK-MEL-28 melanoma = test system: SK-MEL-28 melanoma
SK-MEL-5 melanoma = test system: SK-MEL-5 melanoma
SK-OV-3 ovarian = test system: SK-OV-3 ovarian
SN12C renal = test system: SN12C renal
SNB-19 CNS = test system: SNB-19 CNS
SNB-75 CNS = test system: SNB-75 CNS
SR leukemia = test system: SR leukemia
SW-620 colon = test system: SW-620 colon
T-47D breast = test system: T-47D breast
TK-10 renal = test system: TK-10 renal
U251 CNS = test system: U251 CNS
UACC-257 melanoma = test system: UACC-257 melanoma
UACC-62 melanoma = test system: UACC-62 melanoma
UO-31 renal = test system: UO-31 renal

CNCc1cccc2c1OCCCCCCC(C)(O)CC(C)(C)S(=O)(=O)c1ccc(cc1)-c1cnc(N)c(n1)C(=O)N2 (centres undefined)
GI50 (786-0 renal): 27.9 nM | TGI (786-0 renal): 2100 nM | GI50 (A498 renal): 3580 nM | TGI (A498 renal): 16000 nM | GI50 (A549 NSCLC): 123 nM | TGI (A549 NSCLC): 2460 nM | GI50 (ACHN renal): 30.6 nM | TGI (ACHN renal): 2560 nM | GI50 (BT-549 breast): 762 nM | TGI (BT-549 breast): 8990 nM | GI50 (CAKI-1 renal): 401 nM | TGI (CAKI-1 renal): 2270 nM | GI50 (CCRF-CEM leukemia): 13.8 nM | TGI (CCRF-CEM leukemia): > 20400 nM | GI50 (COLO 205 colon): 66.4 nM | TGI (COLO 205 colon): 1520 nM | GI50 (DU-145 prostate): 603 nM | TGI (DU-145 prostate): 3240 nM | GI50 (EKVX NSCLC): 1870 nM | TGI (EKVX NSCLC): 6970 nM | GI50 (HCT-15 colon): 92 nM | TGI (HCT-15 colon): 1310 nM | GI50 (HOP-62 NSCLC): 1320 nM | TGI (HOP-62 NSCLC): 3750 nM | GI50 (HOP-92 NSCLC): 10200 nM | TGI (HOP-92 NSCLC): 25900 nM | GI50 (HS 578T breast): 381 nM | TGI (HS 578T breast): 2910 nM | GI50 (HT29 colon): 51.5 nM | TGI (HT29 colon): 1890 nM | GI50 (IGROV1 ovarian): 433 nM | TGI (IGROV1 ovarian): 4480 nM | GI50 (K-562 leukemia): 43.6 nM | TGI (K-562 leukemia): > 100000 nM | GI50 (KM12 colon): 1320 nM | TGI (KM12 colon): 2940 nM | GI50 (MALME-3M melanoma): 1210 nM | TGI (MALME-3M melanoma): 2580 nM | GI50 (MDA-MB-231 breast): 953 nM | TGI (MDA-MB-231 breast): 3140 nM | GI50 (MDA-MB-435): 558 nM | TGI (MDA-MB-435): 2050 nM | GI50 (MOLT-4 leukemia): 15.1 nM | TGI (MOLT-4 leukemia): 2570 nM | GI50 (NCI-H226 lung): 1130 nM | TGI (NCI-H226 lung): 6210 nM | GI50 (NCI-H522 lung): 548 nM | TGI (NCI-H522 lung): 2070 nM | GI50 (OVCAR-3 ovarian): 277 nM | GI50 (OVCAR-4 ovarian): 1130 nM | TGI (OVCAR-4 ovarian): 2720 nM | GI50 (OVCAR-5 ovarian): 2240 nM | TGI (OVCAR-5 ovarian): 10300 nM | GI50 (PC-3 prostate): 910 nM | TGI (PC-3 prostate): 9170 nM | GI50 (RPMI-8226 leukemia): 637 nM | TGI (RPMI-8226 leukemia): 3000 nM | GI50 (RXF 393 renal): 47.7 nM | TGI (RXF 393 renal): 1370 nM | GI50 (SF-268 CNS): 1270 nM | TGI (SF-268 CNS): 3570 nM | GI50 (SF-295 CNS): 1410 nM | TGI (SF-295 CNS): 2840 nM | GI50 (SF-539 CNS): 27.4 nM | TGI (SF-539 CNS): 2010 nM | GI50 (SK-MEL-2 melanoma): 1850 nM | TGI (SK-MEL-2 melanoma): 4250 nM | GI50 (SK-MEL-28 melanoma): 1240 nM | TGI (SK-MEL-28 melanoma): 2540 nM | GI50 (SK-MEL-5 melanoma): 1300 nM | TGI (SK-MEL-5 melanoma): 2570 nM | GI50 (SK-OV-3 ovarian): 1850 nM | TGI (SK-OV-3 ovarian): 18400 nM | GI50 (SN12C renal): 1170 nM | TGI (SN12C renal): 12700 nM | GI50 (SNB-19 CNS): 1880 nM | TGI (SNB-19 CNS): 5460 nM | GI50 (SNB-75 CNS): 453 nM | TGI (SNB-75 CNS): 6460 nM | TGI (SR leukemia): 1190 nM | GI50 (SW-620 colon): 1360 nM | TGI (SW-620 colon): 4170 nM | GI50 (T-47D breast): 6440 nM | TGI (T-47D breast): 32700 nM | GI50 (TK-10 renal): 3290 nM | TGI (TK-10 renal): 12200 nM | GI50 (U251 CNS): 366 nM | TGI (U251 CNS): 1940 nM | GI50 (UACC-257 melanoma): 1290 nM | TGI (UACC-257 melanoma): 2720 nM | GI50 (UACC-62 melanoma): 1690 nM | TGI (UACC-62 melanoma): 3340 nM | GI50 (UO-31 renal): 224 nM | TGI (UO-31 renal): 2210 nM
